Results: patent US10266495B2, “Phenyl quinolinone derivatives as mutant-isocitrate dehydrogenase inhibitors” (FORMA TM2, Inc., priority 2014, dated 2019)

Columns and labels:
[1] = biological target: IDH1-R132H recombinant protein (Homo sapiens, UniProt O75874, R132H); test: IDH1-R132H enzymatic assay (NADPH consumption, diaphorase/resazurin readout); format: biochemical; details: read-out: Enzyme IDH1 R132H IC50 Range
Summary of the method: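 Compound was preincubated 15 min at 25 °C with recombinant IDH1-R132H (30 nM) or IDH1-R132C (10 nM) enzyme solution in 50 mM Tris pH 7.5, 150 mM NaCl, 5 mM MgCl2, 0.1% BSA and 0.01% Triton X-100. A solution of 2 mM α-ketoglutarate and 20 μM NADPH was then added for 45 min at 25 °C. Remaining NADPH was read by diaphorase/resazurin, and IC50 came from a four-parameter logistic fit of NADPH-consumption inhibition.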

[2] = biological target: IDH1-R132C recombinant protein (Homo sapiens, UniProt O75874, R132C); test: IDH1-R132C enzymatic assay (NADPH consumption, diaphorase/resazurin readout); format: biochemical; details: read-out: Enzyme IDH1 R132C IC50 Range
Chain of IDH1-R132C recombinant protein (O75874 whole entry R132C): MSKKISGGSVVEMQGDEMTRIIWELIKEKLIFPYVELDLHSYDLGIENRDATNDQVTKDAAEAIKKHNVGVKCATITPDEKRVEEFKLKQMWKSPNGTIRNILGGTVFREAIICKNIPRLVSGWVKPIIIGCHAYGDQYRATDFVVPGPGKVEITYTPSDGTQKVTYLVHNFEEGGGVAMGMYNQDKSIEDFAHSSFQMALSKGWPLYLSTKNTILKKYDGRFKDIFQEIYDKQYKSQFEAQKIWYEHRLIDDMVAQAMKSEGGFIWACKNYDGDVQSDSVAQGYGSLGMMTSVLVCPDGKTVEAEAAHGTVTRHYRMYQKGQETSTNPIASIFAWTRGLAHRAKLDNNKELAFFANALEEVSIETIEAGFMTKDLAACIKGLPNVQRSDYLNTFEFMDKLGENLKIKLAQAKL
Experimental: Assays were performed in a 384-well black plate. An aliquot of 250 nL of compound was incubated with 10 μL of 30 nM IDH1-R132H or 10 nM IDH1-R132C recombinant protein in assay buffer (50 mM Tris pH=7.5, 150 mM NaCl, 5 mM MgCl2, 0.1% (w/v) Bovine Serum Albumin, and 0.01% Triton X-100) in each well at 25° C. for 15 minutes. After the plate was centrifuged briefly, an aliquot of 10 μL of 2 mM α-ketoglutarate and 20 μM NADPH solution prepared in assay buffer was then added to each well and the reaction was maintained at 25° C. for 45 minutes. An aliquot of 10 μL of diaphorase solution (0.15 U/mL diaphorase and 30 μM Resazurin in assay buffer) was added to each well. […] The IC50 of a given compound was calculated by fitting the dose response curve of inhibition of NADPH consumption at a given concentration with the four parameter logistic equation.

[3] = test system: HCT116 isogenic IDH1-R132H mutant cells; test: Cellular 2-HG assay using HCT116 mutant IDH1 cells (R132H); format: cell-based; details: Homo sapiens, HCT-116; cellular 2-HG inhibition, 24 hours, RapidFire mass spectrometry; read-out: HCT116 IDH1 R132H IC50 Range
[4] = test system: HCT116 isogenic IDH1-R132C mutant cells; test: Cellular 2-HG assay using HCT116 mutant IDH1 cells (R132C); format: cell-based; details: Homo sapiens, HCT-116; cellular 2-HG inhibition, 24 hours, RapidFire mass spectrometry; read-out: HCT116 IDH1 R132C IC50 Range

Chain of IDH1-R132H recombinant protein (O75874 whole entry R132H): as the sequence (O75874 whole entry R132C) above, with C132H counted along it

COc1cc(NCc2cc3cc(Cl)ccc3[nH]c2=O)ccc1C#N [Compound I-7, 4-{[(6-chloro-2-oxo-1,2-dihydroquinolin-3-yl)methyl]amino}-2-methoxybenzonitrile]
IC50 [1]: 100 to 1000 nM
IC50 [2]: > 1000 nM
IC50 [3]: 100 to 1000 nM
IC50 [4]: > 1000 nM
